The values that follow come from patent publication US6946473B2, “Preparation and use of acetylenic ortho-sulfonamido and phosphinic acid amido bicyclic heteroaryl hydroxamic acids as TACE inhibitors” (priority 1999, dated 2005).

In general, melting point refers to the temperature, or range, at which the solid turns liquid. A word on the pIC50: it is −log10 of the IC50, conventionally taken in molar units. Read a high pIC50 as a low IC50.

One data set has as its target T1, MMP-1 (Homo sapiens, UniProt P03956).
T1 sequence (P03956 100-469): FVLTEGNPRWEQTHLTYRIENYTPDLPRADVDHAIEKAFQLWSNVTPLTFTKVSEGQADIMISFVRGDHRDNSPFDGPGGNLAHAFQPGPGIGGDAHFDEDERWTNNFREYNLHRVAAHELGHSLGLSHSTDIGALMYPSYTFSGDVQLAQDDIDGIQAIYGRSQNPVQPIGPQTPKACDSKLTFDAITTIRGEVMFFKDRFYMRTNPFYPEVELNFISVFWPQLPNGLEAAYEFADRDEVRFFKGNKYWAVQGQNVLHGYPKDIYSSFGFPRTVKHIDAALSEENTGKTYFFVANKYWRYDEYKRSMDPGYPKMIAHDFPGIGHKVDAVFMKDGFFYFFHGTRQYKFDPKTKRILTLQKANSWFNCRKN
The data set is described as follows: MMP-1 inhibition (thiopeptide or fluorescent peptide substrate). In kind it is biochemical.

pIC50: −log10 of the molar value.

Description for MMP-1: The enzyme activity is measured by the rate of the color increase. The thiopeptide substrate is made up fresh as a 20 mM stock in 100% DMSO and the DTNB is dissolved in 100% DMSO as a 100 mM stock and stored in the dark at room temperature. Both the substrate and DTNB are diluted together to 1 mM with substrate buffer (50 mM HEPES pH 7.5, 5 mM CaCl2) before use. The stock of enzyme is diluted with buffer (50 mM HEPES, pH 7.5, 5 mM CaCl2, 0.02% Brij) to the desired final concentration.
For either the thiopeptide or fluorescent peptide test procedures, the slope of the line is calculated and represents the reaction rate. The linearity of the reaction rate is confirmed (r^2>0.85). The mean (x±sem) of the control rate is calculated and compared for statistical significance (p<0.05) with drug-treated rates using Dunnett's multiple comparison test.

Regarding `CC#CCOc1ccc(S(=O)(=O)N(C)c2c(C(=O)NO)cnc3c2c(C)nn3C)cc1` [Example 7, 4-[(4-But-2-ynyloxy-benzenesulfonyl)-methyl-amino]-1,3-dimethyl-1H-pyrazolo[3,4-b]pyridine-5-carboxylic acid hydroxyamide], the melting point was 189 to 192 °C.
The compound `CC#CCOc1ccc(S(=O)(=O)N(C)c2c(C(=O)NO)cnc3onc(C)c23)cc1` [Example 9, 4-[(4-But-2-ynyloxy-benzenesulfonyl)-methyl-amino]-3-methyl-isoxazolo[5,4-b]pyridine-5-carboxylic acid hydroxyamide] had a pIC50 against MMP-1 of 5.72.
`CC#CCOc1ccc(S(=O)(=O)N(C)c2c(C(=O)NO)cnc3snc(C)c23)cc1` [Example 13, 4-[(4-But-2-ynyloxy-benzenesulfonyl)-methyl-amino]-3-methyl-isothiazolo[5,4-b]pyridine-5-carboxylic acid hydroxyamide] registered a melting point of 183 to 184 °C.
